Measured values reported in the supplement of paper PMC10307832.

Legend:
Experiment in all cases: relative viability (nuclei count vs DMSO), 5 days (fraction); higher = more cells survive
[1] = compound: CC1=CC=C(C=C1)C(=O)CN2C3=C(CCCC3)SC2=N [Pifithrin_alpha] + COc1cccc2cc(-c3nc([C@H]4CC[C@H](C(=O)O)CC4)n4ncnc(N)c34)[nH]c12 [OSI-027] (partner 0.5 µM)
Summary of the method: (§1)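 Lung cancer cell lines were seeded in 1536-well plates and dosed by pin tool the next day, with either a single drug or a fixed anchor-drug dose combined with five library-drug doses (not always all listed) spaced in √10 steps. Five days later, one step fixed the cells and stained their nuclei (final 0.05% Triton X-100, 1% formaldehyde, 1 ug/ml Hoechst), and nuclei were counted on 4× images. Relative viability is the nuclei count in treated wells divided by the count in vehicle wells, and each value is the median of duplicate plates.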

Axitinib + OSI-027 = compound: CNC(=O)c1ccccc1Sc1ccc2c(/C=C/c3ccccn3)n[nH]c2c1 [Axitinib] + COc1cccc2cc(-c3nc([C@H]4CC[C@H](C(=O)O)CC4)n4ncnc(N)c34)[nH]c12 [OSI-027] (partner 0.5 µM)
Summary of the method: as §1

[2] = compound: CC1=CC=C(C=C1)C(=O)CN2C3=C(CCCC3)SC2=N [Pifithrin_alpha] + O=C(CCCCCCC(=O)Nc1ccccc1)NO [Vorinostat] (partner 1 µM)
Summary of the method: as §1

Bemcentinib + Alpelisib = compound: Nc1nc(Nc2ccc3c(c2)CC[C@@H](N2CCCC2)CC3)nn1-c1cc2c(nn1)-c1ccccc1CCC2 [Bemcentinib] + Cc1nc(NC(=O)N2CCC[C@H]2C(N)=O)sc1-c1ccnc(C(C)(C)C(F)(F)F)c1 [Alpelisib] (partner 2 µM)
Summary of the method: as §1

Cell Line | relative viability ([1]; first compound 1 µM) | relative viability ([1]; first compound 3.162 µM) | relative viability ([1]; first compound 10 µM) | relative viability ([1]; first compound 100 µM) | relative viability (Axitinib + OSI-027; first compound 0.005 µM) | relative viability (Axitinib + OSI-027; first compound 0.01581 µM) | relative viability (Axitinib + OSI-027; first compound 0.05 µM) | relative viability (Axitinib + OSI-027; first compound 0.1581 µM) | relative viability (Axitinib + OSI-027; first compound 0.5 µM) | relative viability ([2]; first compound 1 µM) | relative viability ([2]; first compound 3.162 µM) | relative viability ([2]; first compound 10 µM) | relative viability ([2]; first compound 100 µM) | relative viability (Bemcentinib + Alpelisib; first compound 0.04 µM) | relative viability (Bemcentinib + Alpelisib; first compound 0.1265 µM) | relative viability (Bemcentinib + Alpelisib; first compound 0.4 µM) | relative viability (Bemcentinib + Alpelisib; first compound 1.265 µM) | relative viability (Bemcentinib + Alpelisib; first compound 4 µM) | relative viability ([1]; first compound 31.62 µM) | relative viability ([2]; first compound 31.62 µM)
CAL-12T | 0.455 | 0.592 | 0.457 | 0.444 | 0.847 | 0.684 | 0.728 | 0.597 | 0.634 | 0.699 | 0.73 | 0.706 | 0.651 | 1.19 | 1.51 | 1.37 | 1.31 | 1.16 | – | –
A-427 | 0.398 | 0.416 | 0.445 | 0.601 | 0.422 | 0.329 | 0.442 | 0.434 | 0.486 | 0.827 | 0.83 | 0.807 | 0.728 | – | 1.05 | 1.18 | 1.04 | 1.15 | 0.445 | 0.762
NCI-H2009 | 0.601 | 0.663 | 0.62 | 0.456 | 0.699 | 0.684 | 0.646 | 0.697 | 0.887 | 0.697 | 0.715 | 0.601 | 0.57 | 1.23 | 1.2 | 1.24 | 1.2 | 1.16 | 0.431 | 0.399
UMC-11 | 0.537 | 0.518 | 0.56 | 0.456 | 0.494 | 0.504 | 0.438 | 0.498 | 0.521 | 0.342 | 0.382 | 0.343 | 0.256 | 1.08 | 1.19 | 1.11 | 0.968 | 1.05 | 0.485 | 0.245
NCI-H596 | 0.809 | 0.65 | 0.557 | 0.621 | 0.893 | 0.649 | 0.855 | 0.797 | 0.556 | 0.594 | 0.603 | 0.603 | 0.65 | 0.574 | 0.612 | 0.524 | 0.537 | 0.392 | 0.588 | 0.585
LOU-NH91 | 0.592 | 0.692 | 0.703 | 0.595 | 0.736 | 0.513 | 0.745 | 0.719 | 0.707 | 0.8 | 0.868 | 0.821 | 0.739 | 0.631 | 0.702 | 0.7 | 0.717 | 0.71 | 0.655 | 0.597
HOP-62 | 0.836 | 0.811 | 0.955 | 0.921 | 0.825 | 0.865 | 0.814 | 0.872 | 0.923 | 0.436 | 0.603 | 0.645 | 0.658 | 0.914 | 0.831 | – | 1.19 | 0.747 | 0.635 | 0.375
NCI-H1993 | 0.509 | 0.537 | 0.571 | 0.59 | 0.549 | 0.573 | 0.582 | 0.481 | 0.484 | 0.771 | 0.607 | 0.754 | 0.793 | 0.74 | 0.74 | 0.694 | 0.712 | 0.687 | 0.65 | 0.627
